Data on 66 compounds can be found in the pKa sets of Baltruschat and Czodrowski (2020).

`OCc1cccc(O)c1` yielded a pKa (acidic group) of 9.83.

In the case of `CCN(CC)c1ccccc1C`, for the setting “basic group”, the pKa is 7.18.

For the setting “basic group”, `Brc1ccc(-c2cnc(-c3ccccc3)o2)cc1` had a pKa of 0.65.

Take `O=C/C(O)=C/O`: the pKa (acidic group) came to 5.03.

Turning to `c1ccc(-c2nn[nH]n2)cc1`, under “acidic group”, the pKa is 4.53.

`COC(=O)c1ccc(O)c([N+](=O)[O-])c1` yielded a pKa (acidic group) of 5.4.

Consider `FC(F)(F)c1ncnc2nc[nH]c12`, for which, under “acidic group”, the pKa was 7.35.

`C[NH+]1C[C@H](C(=O)O)C=C2c3cccc4[nH]cc(c34)C[C@@H]21` gave a pKa (acidic group) of 3.25.

On to `O/N=C1C=C/C(=N\O)c2cccnc2/1`, for which the pKa runs as follows: (acidic group) 10; (basic group) 3.7.

For the setting “basic group”, `CC12CN3CC(C)(C1)CC(C)(C3)C2` had a pKa of 10.7.

With `CCN(CC)CCNc1cc(C)nc(N)n1`, under “basic group”, the pKa worked out at 9.55.

On to `CC(=O)/C(C[NH+]1CCCCC1)=N\O`, for which the pKa (acidic group) amounted to 7.05.

`CN(C)c1nc2cc3c(cc2[nH]1)CCCC3`: the pKa (basic group) worked out at 7.65.

`NCCCCCCBr`: the pKa (basic group) was found to be 10.6.

As for `[O-]c1cccc2c1-c1c(O)cccc1-2`, the pKa (acidic group) is 11.

For `CC(N)c1nnn[n-]1` (configuration not stated), the pKa (acidic group) came out at 8.77.

As for `Cc1ccno1`, the pKa (basic group) is 2.3.

As to `[NH3+][C@@H](Cc1nc(I)[nH]c1I)C(=O)[O-]`, the pKa (acidic group) was 8.18 and the pKa (basic group) came to 2.72.

For `O=C([O-])[C@@H](O)Cc1c[nH]cn1`, the pKa (basic group) is 7.32.

For the compound `c1ccc(N(CC2CO2)CC2CO2)cc1` (configuration not stated), the pKa (basic group) was -0.4.

Compound `C/C(CN(C)C)=N\[O-]` yielded a pKa (basic group) of 10.9.

Under “basic group”, `Cc1nn(-c2ccccc2)c(C(=O)[O-])c1C(=O)[O-]` had a pKa of 5.89.

Take `O=C(O)C1C2CCC1CC2` (configuration not stated): the pKa (acidic group) turned out to be 4.85.

For the setting “acidic group”, `CC(c1ccccc1)[N+](=O)[O-]` (configuration not stated) showed a pKa of 7.39.

`Nc1ncnc2nc[nH]c12`: the pKa by setting is: (acidic group) 9.74; (basic group) 4.2.

As for `O=C(O)CCCc1c[nH]c2ccccc12`, for the setting “acidic group”, the pKa stood at 4.82.

In the case of `Nc1ccnc([S-])n1`, the pKa (basic group) was 10.6.

For the compound `O=C(O)c1cccnn1`, where the note is “acidic group”, the pKa is 3.

Turning to `CC/C=C/CC1=NC(C(=O)[O-])[C@@H]2SC(C)(C)C(C(=O)[O-])N12` (some centres not stated), for the setting “basic group”, the pKa stood at 7.8.

`Nc1ccc2[nH]c[nH+]c2c1` showed a pKa (basic group) of 3.07.

In turn, `CC[NH+](CC)CCCC(C)Nc1cc(OC)cc2ccc[nH+]c12` (configuration not stated) registered a pKa (basic group) of -1.33.

For the setting “basic group”, `Cn1c2ccccc2c(=N)c2ccccc21` showed a pKa of 11.

Consider `Cc1cc(N)cc[n+]1[O-]`, for which the pKa (basic group) was 4.1.

As to `N#CCCNC(CC(N)=O)C(=O)O` (configuration not stated), where the note is “acidic group”, the pKa was 6.46.

The compound `Nc1ccc(S(=O)(=O)Nc2ccn(-c3ccccc3[N+](=O)[O-])n2)cc1` registered a pKa (acidic group) of 7.

The compound `COCCO` registered a pKa (acidic group) of 14.9.

`CN(C)CCCC(=O)Oc1ccc([N+](=O)[O-])cc1` gave a pKa (basic group) of 9.6.

Turning to `CN1C[C@H](C(=O)[O-])C=C2c3cccc4[nH]cc(c34)C[C@@H]21`, under “basic group”, the pKa turned out to be 8.49.

For the setting “acidic group”, `O=C1CCC(=O)C1` yielded a pKa of 4.5.

With `NC(=O)C(CCC(=O)O)c1ccccc1` (configuration not stated), for the setting “acidic group”, the pKa is 4.64.

Consider `O=[N+]([O-])c1cnc([O-])nc1[O-]`, for which the pKa (basic group) was determined as 11.5.

As to `NCc1ccccc1[N+](=O)[O-]`, where the note is “basic group”, the pKa came to 8.59.

As to `[NH3+]CCCCc1ccncc1`, under “basic group”, the pKa is 5.81.

For the setting “basic group”, `CC(C)N1CCCCC1` had a pKa of 11.

In the case of `COc1ccnc2ccccc12`, the pKa (basic group) was 6.45.

On to `Cn1nc(Cl)nc1NN=O`, for which the pKa (acidic group) is 4.03.

`COc1ccc(C(O)CN)cc1` (configuration not stated) showed a pKa (basic group) of 9.02.

Compound `CC1(C)S[C@H]2[C@@H](NC(=O)Cc3ccccc3)C(=O)N2[C@@H]1C(=O)O` gave a pKa (acidic group) of 2.76.

The compound `CC[C@H](C(=O)[O-])[C@H](CO)Cc1cncn1C` showed a pKa (basic group) of 7.47.

As to `[NH3+]CC#CC#CCCC(=O)O`, where the note is “acidic group”, the pKa was 4.05.

Turning to `Cc1ccc(C(=O)[O-])c(O)c1`, the pKa (acidic group) amounted to 13.8.

With `COc1ccc2c(c1)CCN2`, the pKa (basic group) was found to be 6.1.

`O=C1c2ncnc([O-])c2C(=O)c2nc[nH]c21`: the pKa (basic group) came to 5.99.

As to `CC/C(=N/O)NO`, the pKa was 10.7 (acidic group) and 5.15 (basic group).

Take `Nc1ccc(C(=O)c2ccc(N)cc2)cc1`: the pKa (basic group) was 2.92.

On to `C[Si](C)(CCN)O[Si](C)(C)CCN`, for which the pKa (basic group) was 10.7.

Consider `CN(C)c1nc2ncncc2[nH]1`, for which the pKa runs as follows: (acidic group) 9.73; (basic group) 4.8.

Compound `O=C([O-])C(CO)NCc1cc([N+](=O)[O-])ccc1[O-]` (configuration not stated) displayed a pKa (basic group) of 9.75.

Take `OC(CS)CS`: the pKa (acidic group) amounted to 9.17.

In turn, `COc1cc2c(cc1O)CCN1Cc3c(ccc(OC)c3OC)C[C@@H]21` came in with a pKa (basic group) of 9.55.

For the compound `[N-]=[N+]=Nc1ncnc2nc[nH]c12`, the pKa (acidic group) came out at 7.6.

On to `OCCN(CCc1nnn[n-]1)CCc1nnn[n-]1`, for which, for the setting “basic group”, the pKa was 8.9.

As to `COc1ccc(-c2nc3ncncc3[nH]2)c(OC)c1`, the pKa (acidic group) is 9.92 and the pKa (basic group) is 3.09.

Compound `CCOCCn1c(CN2CCN(CCCCn3cc(C(=O)[O-])cn3)CC2)nc2ccccc21` yielded a pKa (basic group) of 8.

The compound `O=[N+]([O-])c1cccc2cn[nH]c12` gave a pKa (basic group) of -0.83.

As to `CC(=O)N[C@H]1CONC1=O`, under “acidic group”, the pKa stood at 5.8.

Broadly, the pKa is the negative logarithm of the acid dissociation constant. Read a low pKa as a group that gives up its proton readily.
